# Measurements published in patent publication EP0104572A1, “Benzyl ethers of phenol Mannich bases, process for their production, their use and pharmaceutical preparations based on these compounds, intermediates and process for their production” (priority 1982, dated 1984).
# Read-outs that look alike come from different tables or passages of the source.
# Columns and labels:
# Serum-Lipoproteine = experiment: Change of serum and lipoprotein-fraction cholesterol in rats after 7 days of oral treatment (ultracentrifuge fractionation, CHOD-PAP cholesterol); format: in vivo, männlichen Wistar-Ratten; conditions: Rattus norvegicus, 168 h, oral (gavage), 7 days, male Wistar rats; for change in vivo at 1 mg/kg: 1 mg/kg / Tag; for change in vivo at 10 mg/kg: 10 mg/kg / Tag
# Excerpt: (§1) Die Wirkung der angeführten Verbindungen auf die Serum- Lipoproteine wurde an männlichen Wistar-Ratten untersucht, die 7 Tage per Schlundsonde mit den angeführten in Polyäthylenglykol 400 suspendierten Verbindungen behandelt wurden. Außerdem wurde eine Kontrollgruppe, die nur das Lösungsmittel Polyäthylenglykol 400 erhielt, mitgeführt, sowie bei den meisten Versuchen eine Ratten-Gruppe mit dem Standardhypolipidämikum Clofibrat. Pro Gruppe wurden in der Regel 10 Tiere eingesetzt, denen am Ende der Behandlung das Blut nach leichter Äthernarkose aus dem Orbitalplexus entnommen wurde. Aus dem gewonnenen Ratten-Serum wurden die Serum- Lipoproteine in der präparativen Ultrazentrifuge in folgende Dichteklassen getrennt: VLDL < 1,006; LDL 1,006 bis 1,04; HDL 1,04 bis 1,21
# Da nämlich im Gegensatz zum Menschen die Serumlipoproteine der Ratte etwa 4/5 HDL-Cholesterin und nur 1/5 LDL-Cholesterin enthalten und nur sehr geringe Mengen von VLDL (beim Menschen umgekehrt etwa 2/3 LDL und VLDL und nur 1/3 bis 1/4 HDL), macht die Beurteilung einer hypolipidämischen Wir- .kung an der Ratte unbedingt eine Fraktionierung des Ratten-serums in Lipoproteinklassen erforderlich. Eine bloße Erniedrigung des Serum-Total-cholesteringehaltes an der Ratte würde nämlich nur die unerwünschte Erniedrigung der bei der Ratte vorwiegenden antiatherogenen HDL-Klasse anzeigen. Eine erwünschte Erniedrigung von LDL bei gleichzeitiger erwünschter Vermehrung von HDL hätte aber keine (wesentliche) Auswirkung auf den Totalcholesteringehalt des Ratten-Serums.
# Aus den in der Ultrazentrifuge isolierten LipoproteinFraktionen wurde das darin enthaltene Cholesterin vollenzymatisch nach der CHOD-PAP-Methode mittels der Testkombination von Boehringer-Mannheim bestimmt und die Werte in µg/ml Serum umgerechnet. In der angeführten Tabelle ist die Veränderung des Lipoprotein-Cholesterins in der behandelten Gruppe gegenüber einer unter gleichen Bedingungen mitgeführten Kontrollgruppe angegeben.
# Veränderung in % der Lipoproteine im Ratten-Serum nach siebentägiger oraler Applikation der Verbindungen
# [1] = Change of relative liver weight and liver findings in the 7-day oral rat study; format: in vivo, männlichen Wistar-Ratten; conditions: 1 mg/kg / Tag, oral (gavage), 7 days, male Wistar rats
# Excerpt: Die erfindungsgemäßen Verbindungen haben wertvolle therapeutische Eigenschaften. So erniedrigen sie vor allem die Konzentration von LDL und VLDL, die HDL-Fraktion aber kaum, in vielen Fällen wird diese Fraktion sogar vermehrt. Diese Verbindungen stellen daher einen wesentlichen Fortschritt gegenüber der Vergleichsverbindung Clofibrat dar, wie aus .den nachfolgend beschriebenen Daten ersichtlich ist. Sie können daher zur Prophylaxe und Regression von arteriosklerotischen Veränderungen herangezogen werden, indem sie einen kausalen Risikofaktor ausschalten. Hierzu zählen nicht nur die primären Hyperlidämien, sondern auch gewisse sekundäre Hyperlipidämien wie sie z.B. beim Diabetes vorkommen. […] Die mit einer hypolipidämischen Wirkung verbundene unerwünschte Beeinflussung der Leber zeigt sich auch in sehr starkem Maße bei der in J.Med.Chem. 18 (1975) S. 833-836 beschriebenen Vergleichsverbindung 1-(4-Methylbenzyl)-imidazol. […] Die erfindungsgemäßen Verbindungen zeigen dieses unerwünschte Verhalten nicht.
# as §1
# [2] = read-out: Cholesterolveränderung in %, bezogen auf die Kontrollgruppe in den Serum-Lipoprotein-Fraktionen LDL
# [3] = read-out: Cholesterolveränderung in %, bezogen auf die Kontrollgruppe in den Serum-Lipoprotein-Fraktionen VLDL
smiles,measurement,setting,value
Cc1cc(Cn2ccnc2)cc(C)c1OCc1ccc(C(O)C(C)(C)C)cc1 (stereo not shown) [Beispiel 2.1],change in vivo at 1 mg/kg,"Serum-Lipoproteine; read-out: Cholesterolveränderung in %, bezogen auf die Kontrollgruppe in den Serum-Lipoprotein-Fraktionen HDL",17%
same,change in vivo at 1 mg/kg,Serum-Lipoproteine; [2],-53%
same,change in vivo at 1 mg/kg,Serum-Lipoproteine; [3],17%
same,change in vivo at 10 mg/kg,"Serum-Lipoproteine; read-out: Cholesterolveränderung in %, bezogen auf die Kontrollgruppe im Serum",-22%
same,change in vivo at 10 mg/kg,Serum-Lipoproteine; [2],-66%
same,change in vivo at 10 mg/kg,Serum-Lipoproteine; [3],-54%
same,% Veränderung des relativen Lebergewichtes,[1],+11%
